Patent US20210393932A1, “DERMAL PATCHES AND GLASS SWABS FOR APPLICATION OF TOPICAL IMMUNOSENSITIZERS” (Squarex, LLC, priority 2020, published 2021)
“And” between values parts separate entries of the source, which are not always exact repeats. Identical values can stand only once.

Test: Drug elution from SADBE dermal patches into pig skin (residual SADBE by HPLC)
Type: in vivo
Details: for Percent of SADBE presumed in skin / SADBE area in kimwipe swab / SADBE area, 255 nm, 24 min. (extracted from patch) / net HPLC area of SADBE lost and presumed in skin: 2% SADBE in DMSO
Experimental: Squaric acid dibutyl ester (SADBE) at 2% (w/v) concentration in dimethylsulfoxide (DMSO) was added to a skin patch for dermal dosing of SADBE to test for a delayed-type hypersensitivity response or other skin irritation and to test how much SADBE disappears from the patch with different volumes and time of exposure, and is therefore presumed to enter the skin.
One purpose of this study was to determine the time course of drug elution from the dermal patches into the skin. For that purpose, patches were applied to the skin of pigs and removed 1, 3, 6, or 24 hours later, and then extracted to determine the amount of residual SADBE drug remaining in the patch. The missing SADBE from the amount originally loaded onto the patch is presumed to have transferred into the pig skin.
The skin patches consisted of a polymer backing layer similar to 3M 9916 polyester nonwoven backing layer with adhesive, 3M 9733 polyester film laminate barrier layer, and Precision Fabrics Group 0700-00010 polyester gauze layer. The gauze was heat sealed to the barrier layer. The gauze patch area was about 3 cm^2.
Patches were removed from the pigs at the indicated times and immediately the reservoir portion of the patch was cut out and placed in a 50 ml tube with 10 ml of DMSO.
Immediately after removing the patch, a kimwipe was used to swab the spot on the pig where the patch had been in order to attempt to recover any SADBE that was on the surface of the skin and had not absorbed into the skin. After wiping with the kimwipe, the kimwipe was placed in a separate 50 ml tube containing 10 ml of DMSO.
The tubes of DMSO with patches or kimwipe were transported to our laboratory, shaken at 200 rpm for 10 minutes, and then the DMSO from each tube was placed in an injection vial and analyzed for SADBE content by HPLC on a C18 column with the program SADBE3-50 ul. SADBE elutes in this program at about 24.0 minutes and absorbs at 255 nm, so the area of the 24.0 min peak at 255 nm was used to quantify SADBE.
This program is called SADBE3-50 ul on the HPLC, with 50 ul injection. Column: USP L1 (ODS), 250 mm×4.6 mm, 5 um (C18) • Agilent part number 880995-902 Mobile phase: A: 25 mM KH2PO4 (pH5) (not pH adjusted) • B: Methanol Flow rate: 1.0 mL/min
On Aug. 6, 2018, the first set of patches was placed on 3 pigs. The patches were all held in place on the pigs by an elastic bandage wrapped around the torso of each of the pigs over the patches. The net HPLC area of SADBE lost and presumed in skin is calculated as the area predicted from the 20 ul and 50 ul controls minus the observed HPLC area of SADBE extracted from the test patch that was applied to skin.
SADBE patch testing on pigs 4 and 5 was done on Aug. 13, 2018. In this case, patches on both pigs were covered with TEGADERM™, and on one pig the TEGADERM™ was further covered by an elastic bandage as on August 6.
Summary and Conclusions of Drug Elution from Patches: The percentage of SADBE lost from the patch, and therefore presumed to be transferred into the skin, was calculated for each patch and the results for a given volume (volume of 2% SADBE solution loaded onto the patch) and time point (time patch was on the pig) were averaged, broken down by whether an elastic bandage held the patch in place on the pig or not, was averaged.

[1] = 20 ul on patch, removed at 1 h, elastic bandage (Aug. 6)
[2] = 20 ul on patch, removed at 3 h, elastic bandage (Aug. 6)
[3] = 20 ul on patch, removed at 6 h, elastic bandage (Aug. 6)
[4] = 20 ul on patch, removed at 24 h, elastic bandage (Aug. 6)
[5] = 20 ul, removed at 3 h, TEGADERM, Ace bandage no (Aug. 13)
[6] = 20 ul, removed at 3 h, TEGADERM, Ace bandage yes (Aug. 13)
[7] = 20 ul, removed at 6 h, TEGADERM, Ace bandage no (Aug. 13)
[8] = 20 ul, removed at 6 h, TEGADERM, Ace bandage yes (Aug. 13)
[9] = 50 ul on patch, removed at 1 h, elastic bandage (Aug. 6)
[10] = 50 ul on patch, removed at 3 h, elastic bandage (Aug. 6)
[11] = 50 ul on patch, removed at 6 h, elastic bandage (Aug. 6)
[12] = 50 ul on patch, removed at 24 h, elastic bandage (Aug. 6)
[13] = 50 ul, removed at 3 h, TEGADERM, Ace bandage no (Aug. 13)
[14] = 50 ul, removed at 3 h, TEGADERM, Ace bandage yes (Aug. 13)
[15] = 50 ul, removed at 6 h, TEGADERM, Ace bandage no (Aug. 13)
[16] = 50 ul, removed at 6 h, TEGADERM, Ace bandage yes (Aug. 13)
[17] = 80 ul on patch, removed at 1 h, elastic bandage (Aug. 6)
[18] = 80 ul on patch, removed at 3 h, elastic bandage (Aug. 6)
[19] = 80 ul on patch, removed at 6 h, elastic bandage (Aug. 6)
[20] = 80 ul on patch, removed at 24 h, elastic bandage (Aug. 6)

CCCCOc1c(OCCCC)c(=O)c1=O [SADBE, squaric acid dibutyl ester]
Percent of SADBE presumed in skin [1]: 42.8% and 45.8% | SADBE area in kimwipe swab [1]: 35 and 39 | SADBE area, 255 nm, 24 min. (extracted from patch) [1]: 1941 and 1838 | net HPLC area of SADBE lost and presumed in skin [1]: 1452 and 1555 | Percent of SADBE presumed in skin [2]: 78.3% and 71.9% | SADBE area in kimwipe swab [2]: 38 and 44 | SADBE area, 255 nm, 24 min. (extracted from patch) [2]: 735 and 954 | net HPLC area of SADBE lost and presumed in skin [2]: 2658 and 2439 | Percent of SADBE presumed in skin [3]: 92.2% and 92.8% | SADBE area in kimwipe swab [3]: 40 and 50 | SADBE area, 255 nm, 24 min. (extracted from patch) [3]: 265 and 244 | net HPLC area of SADBE lost and presumed in skin [3]: 3128 and 3149 | Percent of SADBE presumed in skin [4]: 94.6% and 95.5% | SADBE area in kimwipe swab [4]: 19 and 21 | SADBE area, 255 nm, 24 min. (extracted from patch) [4]: 182 and 151 | net HPLC area of SADBE lost and presumed in skin [4]: 3211 and 3242 | Percent of SADBE presumed in skin [5]: 60.4% and 38.0% | SADBE area, 255 nm, 24 min. (extracted from patch) [5]: 1327 and 2076 | net HPLC area of SADBE lost and presumed in skin [5]: 2021 and 1272 | Percent of SADBE presumed in skin [6]: 77.5% and 74.9% | SADBE area, 255 nm, 24 min. (extracted from patch) [6]: 753 and 842 | net HPLC area of SADBE lost and presumed in skin [6]: 2595 and 2506 | Percent of SADBE presumed in skin [7]: 88.4% and 70.5% | net HPLC area of SADBE lost and presumed in skin [7]: 2960 and 2362 | Percent of SADBE presumed in skin [8]: 90.2% and 88.4% | SADBE area, 255 nm, 24 min. (extracted from patch) [8]: 328 and 390 | net HPLC area of SADBE lost and presumed in skin [8]: 3020 and 2958 | Percent of SADBE presumed in skin [9]: 38.1% and 43.0% | SADBE area in kimwipe swab [9]: 78 and 75 | SADBE area, 255 nm, 24 min. (extracted from patch) [9]: 5108 and 4698 | net HPLC area of SADBE lost and presumed in skin [9]: 3141 and 3551 | Percent of SADBE presumed in skin [10]: 67.2% and 78.9% | SADBE area in kimwipe swab [10]: 52 and 78 | SADBE area, 255 nm, 24 min. (extracted from patch) [10]: 2707 and 1741 | net HPLC area of SADBE lost and presumed in skin [10]: 5542 and 6508 | Percent of SADBE presumed in skin [11]: 84.9% and 91.9% | SADBE area in kimwipe swab [11]: 50 and 45 | SADBE area, 255 nm, 24 min. (extracted from patch) [11]: 1243 and 666 | net HPLC area of SADBE lost and presumed in skin [11]: 7006 and 7583 | Percent of SADBE presumed in skin [12]: 97.3% and 98.4% | SADBE area in kimwipe swab [12]: 20 and 22 | SADBE area, 255 nm, 24 min. (extracted from patch) [12]: 224 and 128 | net HPLC area of SADBE lost and presumed in skin [12]: 8025 and 8121 | Percent of SADBE presumed in skin [13]: 50.8% and 56.9% | SADBE area, 255 nm, 24 min. (extracted from patch) [13]: 4058 and 3549 | net HPLC area of SADBE lost and presumed in skin [13]: 4184 and 4693 | Percent of SADBE presumed in skin [14]: 57.7% and 32.1% | SADBE area, 255 nm, 24 min. (extracted from patch) [14]: 3484 and 5599 | net HPLC area of SADBE lost and presumed in skin [14]: 4758 and 2643 | Percent of SADBE presumed in skin [15]: 70.2% and 54.9% | SADBE area, 255 nm, 24 min. (extracted from patch) [15]: 2454 and 3717 | net HPLC area of SADBE lost and presumed in skin [15]: 5788 and 4525 | Percent of SADBE presumed in skin [16]: 76.4% and 83.3% | SADBE area, 255 nm, 24 min. (extracted from patch) [16]: 1949 and 1376 | net HPLC area of SADBE lost and presumed in skin [16]: 6293 and 6866 | Percent of SADBE presumed in skin [17]: 24.6% and 30.2% | SADBE area in kimwipe swab [17]: 105 and 98 | SADBE area, 255 nm, 24 min. (extracted from patch) [17]: 9952 and 9208 | net HPLC area of SADBE lost and presumed in skin [17]: 3246 and 3990 | Percent of SADBE presumed in skin [18]: 27.9% and 49.0% | SADBE area, 255 nm, 24 min. (extracted from patch) [18]: 9517 and 6734 | net HPLC area of SADBE lost and presumed in skin [18]: 3681 and 6464 | Percent of SADBE presumed in skin [19]: 83.4% and 81.3% | SADBE area, 255 nm, 24 min. (extracted from patch) [19]: 2192 and 2471 | net HPLC area of SADBE lost and presumed in skin [19]: 11006 and 10727 | Percent of SADBE presumed in skin [20]: 96.1% and 97.9% | SADBE area in kimwipe swab [20]: 24 and 20 | SADBE area, 255 nm, 24 min. (extracted from patch) [20]: 509 and 273 | net HPLC area of SADBE lost and presumed in skin [20]: 12689 and 12925 | loaded drug transferred into the skin (by 6 hours, all loading volumes tested, with the elastic bandage): over 80% | loaded drug transferred into the skin (by 24 hours): over 95% | Average transfer of SADBE into skin (with elastic bandage, 20 ul of 2% SADBE, patch worn 1 hour): 44.3% (n = 2) | Average transfer of SADBE into skin (with elastic bandage, 20 ul of 2% SADBE, patch worn 3 hours): 75.6% (n = 4) | Average transfer of SADBE into skin (with elastic bandage, 20 ul of 2% SADBE, patch worn 6 hours): 90.9% (n = 4) | Average transfer of SADBE into skin (with elastic bandage, 20 ul of 2% SADBE, patch worn 24 hours): 95.1% (n = 2) | Average transfer of SADBE into skin (with elastic bandage, 50 ul of 2% SADBE, patch worn 1 hour): 40.6% (n = 2) | Average transfer of SADBE into skin (with elastic bandage, 50 ul of 2% SADBE, patch worn 3 hours): 59.0% (n = 4) | Average transfer of SADBE into skin (with elastic bandage, 50 ul of 2% SADBE, patch worn 6 hours): 84.1% (n = 4) | Average transfer of SADBE into skin (with elastic bandage, 50 ul of 2% SADBE, patch worn 24 hours): 97.9% (n = 2) | Average transfer of SADBE into skin (with elastic bandage, 80 ul of 2% SADBE, patch worn 1 hour): 27.4% (n = 2) | Average transfer of SADBE into skin (with elastic bandage, 80 ul of 2% SADBE, patch worn 3 hours): 38.4% (n = 2) | Average transfer of SADBE into skin (with elastic bandage, 80 ul of 2% SADBE, patch worn 6 hours): 82.3% (n = 2) | Average transfer of SADBE into skin (with elastic bandage, 80 ul of 2% SADBE, patch worn 24 hours): 97.0% (n = 2) | Average transfer of SADBE into skin (without elastic bandage, 20 ul of 2% SADBE, patch worn 3 hours): 49.2% (n = 2) | Average transfer of SADBE into skin (without elastic bandage, 20 ul of 2% SADBE, patch worn 6 hours): 79.5% (n = 2) | Average transfer of SADBE into skin (without elastic bandage, 50 ul of 2% SADBE, patch worn 3 hours): 53.9% (n = 2) | Average transfer of SADBE into skin (without elastic bandage, 50 ul of 2% SADBE, patch worn 6 hours): 62.6% (n = 2)
